Reference: publication PMC12503906, “Novel Pyrazolo [1,5‐a]−1,3,5‐Triazine Derivatives as CDK7 Inhibitors: Synthesis and Biological Insights in Pancreatic Ductal Adenocarcinoma Models” (Chemmedchem, 2025)

What was measured:
Assay type in all cases: cell-based
PATU‐T = experiment: Wound healing assay, PATU‐T; conditions: 1 × IC50 and 4 × IC50, 4 to 24 h
Procedure: The wound healing assay was used to test the migratory ability of the selected cells post‐treatment. Cells (5 × 10^4 /well) were seeded on 96‐well. After 24 h, cells reached the optimal 100% confluency, and an artificial wound was created with a 96‐well Pintool Scratcher. The cells were immediately washed with complete medium, in order to remove cell debris after the scratch, and images of the wells were captured at time 0 h, right before the addition of the treatment. Each drug (1b and 1g) was previously diluted in the respective medium at two different concentrations: 1 × IC50 and 4 × IC50 (according to the cell specific IC50 value) and were then added to the cells. Images were then taken at timepoints 4, 8, 20, and 24 h using the Leica microscope with a JAI TMC‐137 camera to assess wound closure. The images were analyzed using the Universal Grab 6.3 software (DCILabs), and the obtained data were used to determine the percentage of migration of the cells, using the following formula. (2) % Migration=Mean width of the wound atT=0−Mean width of the wound atT=X/Mean width of the wound atT=0×100

CDK7 = CDK7 (Homo sapiens, UniProt P50613); experiment: Kinase activity profiling, PamChip array, CDK7; parameters: endogenous in cells; host or cells: PDAC3 primary cells; conditions: PDAC‐3 primary cells, IC50 concentration, 2 h, Pamgene array
Procedure: (§1) A Kinase activity profiling was conducted using a PamChip (Pamgene, s‐Hertogenbosch, The Netherlands) array containing 144 peptide substrates specific to tyrosine kinases to assess activity changes upon treatment with compounds 1b and 1g. Experiments were carried out in PDAC3 cells, using biological triplicates comprising three untreated controls and three samples treated for 2 h with either compound at their respective 1 × IC50 concentrations, following protocols adapted from previous studies.^[ [38] ^] Protein concentrations were quantified using the Bio‐Rad protein assay, which is based on the Bradford method (Bio‐Rad, Hercules, CA). For chip loading, protein lysates were adjusted to a final concentration of 10 µg per array and combined with PamGene MasterMix. During the assay, samples were circulated through the array at 30 °C with one cycle per minute over 60 cycles. Fluorescence data acquisition was performed using a 12‐bit CCD camera, capturing real‐time fluorescence intensities. End‐point spot intensities were analyzed using the open‐source software ScanAnalyze, with background normalization applied. Statistical comparisons were performed using student's t‐test in R (version 3.6.1), followed by false discovery rate (FDR) correction.

[1] = test system: peptide substrates specific to tyrosine kinases; experiment: Kinase activity profiling, PamChip array, peptide substrates / other kinases; conditions: PDAC‐3 primary cells, IC50 concentration, 2 h, Pamgene array
Procedure: as §1

CDK7, sequence (P50613 2-346 limits assumed): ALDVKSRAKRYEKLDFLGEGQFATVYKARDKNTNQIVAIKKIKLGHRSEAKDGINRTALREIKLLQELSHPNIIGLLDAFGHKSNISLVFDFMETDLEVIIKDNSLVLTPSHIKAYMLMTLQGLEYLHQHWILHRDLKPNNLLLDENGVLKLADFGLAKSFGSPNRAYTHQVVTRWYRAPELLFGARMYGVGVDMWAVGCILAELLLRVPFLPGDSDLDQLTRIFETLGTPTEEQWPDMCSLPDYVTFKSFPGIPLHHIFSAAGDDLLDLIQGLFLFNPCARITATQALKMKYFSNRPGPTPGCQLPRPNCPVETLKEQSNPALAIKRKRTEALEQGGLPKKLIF
CDK7, sequence (P51946 whole entry partner): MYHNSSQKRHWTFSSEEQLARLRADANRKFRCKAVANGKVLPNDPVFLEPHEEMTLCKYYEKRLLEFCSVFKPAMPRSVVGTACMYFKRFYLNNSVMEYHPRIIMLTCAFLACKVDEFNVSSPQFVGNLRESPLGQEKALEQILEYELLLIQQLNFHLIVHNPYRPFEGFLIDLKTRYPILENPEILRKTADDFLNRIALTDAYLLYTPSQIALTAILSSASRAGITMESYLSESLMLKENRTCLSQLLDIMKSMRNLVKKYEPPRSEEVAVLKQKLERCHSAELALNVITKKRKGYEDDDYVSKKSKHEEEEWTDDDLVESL
CDK7, sequence (P51948 whole entry partner): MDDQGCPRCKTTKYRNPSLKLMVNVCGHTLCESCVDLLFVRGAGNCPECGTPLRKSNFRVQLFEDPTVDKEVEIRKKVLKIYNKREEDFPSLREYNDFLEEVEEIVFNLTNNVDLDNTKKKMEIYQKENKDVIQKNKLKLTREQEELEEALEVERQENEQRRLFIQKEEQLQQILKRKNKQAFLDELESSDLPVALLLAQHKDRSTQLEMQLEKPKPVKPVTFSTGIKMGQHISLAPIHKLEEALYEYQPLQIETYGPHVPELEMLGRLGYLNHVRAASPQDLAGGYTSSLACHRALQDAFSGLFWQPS

For Nc1ncnc2cc(-c3c[nH]c4ccc(Br)cc34)nn12 [Compound 1b, 7‐(5‐Bromo‐1H‐indol‐3‐yl)pyrazolo[1,5‐a][1,3,5]triazin‐4‐amine], the “inhibition of cell migration” value (PATU‐T) was “greatest inhibitory effect”, the “inhibition of phosphorylation, CDK7 (decrease vs untreated controls)” value (CDK7) was 70% and the “inhibition of the other kinases (other than CDK7)” value [1] was “below 50%”.
